Laboratory results taken from PubChem BioAssay AID1259407 (Chemical Carcinogenesis Research Information System (CCRIS), 2018).
Active and inactive are the calls of the source. How the calls were made is not given here.

Tested on: CCRIS mutagenicity, Ames/micronucleus/aberration tests
Assay: CCRIS mutagenicity studies

## C[C@@H]1Cc2c(Cl)cc(C(=O)NC(Cc3ccccc3)C(=O)O)c(O)c2C(=O)O1 (stereo partly specified)
End Point: IN VITRO CHROMOSOMAL ABERRATIONS, Test System: BOVINE LYMPHOCYTES, Metabolic Activation: NONE
  mutagenic call: active; positive (structural changes)
End Point: IN VIVO CHROMOSOMAL ABERRATIONS, Test System: SPLENOCYTES, Species: RAT, Strain/Sex: FISCHER 344/MALE, Route: ORAL (GAVAGE)
  mutagenic call: inactive; negative
End Point: In vivo chromosomal aberrations, Test System: Bone marrow cells, Species: Mouse, Strain/Sex: Balb/C / Male, Route: Intraperitoneal
  mutagenic call: active; positive (structural changes)
End Point: In vivo micronucleus, Test System: Bone marrow polychromatic erythrocytes, Species: Rat, Strain/Sex: Sprague-Dawley/Male, Route: Oral
  mutagenic call: active; positive. addition of inula crithmoides extract inhibited the response
Test System: AMES SALMONELLA TYPHIMURIUM, Strain/Indicator: TA97, Metabolic Activation: HAMSTER, LIVER, S-9, AROCLOR 1254 (10 OR 30%), Method: PREINCUBATION
  mutagenic call: inactive; negative
Test System: AMES SALMONELLA TYPHIMURIUM, Strain/Indicator: TA97, Metabolic Activation: HAMSTER, LIVER, S-9, AROCLOR 1254, Method: PREINCUBATION
  mutagenic call: inactive; negative
Test System: AMES SALMONELLA TYPHIMURIUM, Strain/Indicator: TA97, Metabolic Activation: NONE, Method: PREINCUBATION
  mutagenic call: inactive; negative
Test System: AMES SALMONELLA TYPHIMURIUM, Strain/Indicator: TA97, Metabolic Activation: RAT, LIVER, S-9, AROCLOR 1254 (10 OR 30%), Method: PREINCUBATION
  mutagenic call: inactive; negative
Test System: AMES SALMONELLA TYPHIMURIUM, Strain/Indicator: TA97, Metabolic Activation: RAT, LIVER, S-9, AROCLOR 1254, Method: PREINCUBATION
  mutagenic call: inactive; negative
Test System: AMES SALMONELLA TYPHIMURIUM, Strain/Indicator: TA97A, Metabolic Activation: NONE, Method: PREINCUBATION
  mutagenic call: inactive; negative
Test System: AMES SALMONELLA TYPHIMURIUM, Strain/Indicator: TA97A, Metabolic Activation: RAT LIVER S-9, Method: PREINCUBATION
  mutagenic call: inactive; negative
Test System: AMES SALMONELLA TYPHIMURIUM, Strain/Indicator: TA98, Metabolic Activation: HAMSTER, LIVER, S-9, AROCLOR 1254 (10 OR 30%), Method: PREINCUBATION
  mutagenic call: inactive; negative
Test System: AMES SALMONELLA TYPHIMURIUM, Strain/Indicator: TA98, Metabolic Activation: HAMSTER, LIVER, S-9, AROCLOR 1254, Method: PREINCUBATION
  mutagenic call: inactive; negative
Test System: AMES SALMONELLA TYPHIMURIUM, Strain/Indicator: TA98, Metabolic Activation: HUMAN HEPG2 CELL S-9, Method: PREINCUBATION
  mutagenic call: inactive; negative
Test System: AMES SALMONELLA TYPHIMURIUM, Strain/Indicator: TA98, Metabolic Activation: MOUSE KIDNEY S-9, NADP OR ARACHIDONIC ACID (10%), Method: MICROMETHOD
  mutagenic call: active; positive
Test System: AMES SALMONELLA TYPHIMURIUM, Strain/Indicator: TA98, Metabolic Activation: MOUSE LIVER S-9 (10%), Method: MICROMETHOD
  mutagenic call: inactive; negative
Test System: AMES SALMONELLA TYPHIMURIUM, Strain/Indicator: TA98, Metabolic Activation: NONE, Method: PREINCUBATION
  mutagenic call: inactive; negative
Test System: AMES SALMONELLA TYPHIMURIUM, Strain/Indicator: TA98, Metabolic Activation: NONE, Method: STANDARD PLATE
  mutagenic call: inactive; negative
Test System: AMES SALMONELLA TYPHIMURIUM, Strain/Indicator: TA98, Metabolic Activation: RAT LIVER S-9, AROCLOR 1254 (10%), Method: MICROMETHOD
  mutagenic call: inactive; negative
Test System: AMES SALMONELLA TYPHIMURIUM, Strain/Indicator: TA98, Metabolic Activation: RAT LIVER S-9, Method: PREINCUBATION
  mutagenic call: inactive; negative
Test System: AMES SALMONELLA TYPHIMURIUM, Strain/Indicator: TA98, Metabolic Activation: RAT, LIVER, S-9, AROCLOR 1254 (10 OR 30%), Method: PREINCUBATION
  mutagenic call: inactive; negative
Test System: AMES SALMONELLA TYPHIMURIUM, Strain/Indicator: TA98, Metabolic Activation: RAT, LIVER, S-9, AROCLOR 1254, Method: PREINCUBATION
  mutagenic call: inactive; negative
Test System: AMES SALMONELLA TYPHIMURIUM, Strain/Indicator: TA98, Metabolic Activation: RAT, LIVER, S-9, AROCLOR 1254, Method: STANDARD PLATE
  mutagenic call: inactive; negative
Test System: AMES SALMONELLA TYPHIMURIUM, Strain/Indicator: TA100, Metabolic Activation: HAMSTER, LIVER, S-9, AROCLOR 1254 (10 OR 30%), Method: PREINCUBATION
  mutagenic call: inactive; negative
Test System: AMES SALMONELLA TYPHIMURIUM, Strain/Indicator: TA100, Metabolic Activation: HAMSTER, LIVER, S-9, AROCLOR 1254, Method: PREINCUBATION
  mutagenic call: inactive; negative
Test System: AMES SALMONELLA TYPHIMURIUM, Strain/Indicator: TA100, Metabolic Activation: HUMAN HEPG2 CELL S-9, Method: PREINCUBATION
  mutagenic call: inactive; negative
Test System: AMES SALMONELLA TYPHIMURIUM, Strain/Indicator: TA100, Metabolic Activation: NONE, Method: STANDARD PLATE
  mutagenic call: inactive; negative
Test System: AMES SALMONELLA TYPHIMURIUM, Strain/Indicator: TA100, Metabolic Activation: RAT LIVER S-9, Method: PREINCUBATION
  mutagenic call: inactive; negative
Test System: AMES SALMONELLA TYPHIMURIUM, Strain/Indicator: TA100, Metabolic Activation: RAT, LIVER, MICROSOMES, PHENOBARBITAL, Method: STANDARD PLATE
  mutagenic call: active; positive
Test System: AMES SALMONELLA TYPHIMURIUM, Strain/Indicator: TA100, Metabolic Activation: RAT, LIVER, S-9, AROCLOR 1254 (10 OR 30%), Method: PREINCUBATION
  mutagenic call: inactive; negative
Test System: AMES SALMONELLA TYPHIMURIUM, Strain/Indicator: TA100, Metabolic Activation: RAT, LIVER, S-9, AROCLOR 1254, Method: PREINCUBATION
  mutagenic call: inactive; negative
Test System: AMES SALMONELLA TYPHIMURIUM, Strain/Indicator: TA100, Metabolic Activation: RAT, LIVER, S-9, AROCLOR 1254, Method: STANDARD PLATE
  mutagenic call: inactive; negative
Test System: AMES SALMONELLA TYPHIMURIUM, Strain/Indicator: TA100, Metabolic Activation: RAT, LIVER, S-9, PHENOBARBITAL, Method: PREINCUBATION
  mutagenic call: inactive; negative
Test System: AMES SALMONELLA TYPHIMURIUM, Strain/Indicator: TA102, Metabolic Activation: NONE, Method: PREINCUBATION
  mutagenic call: inactive; negative
Test System: AMES SALMONELLA TYPHIMURIUM, Strain/Indicator: TA102, Metabolic Activation: NONE, Method: STANDARD PLATE
  mutagenic call: inactive; negative
Test System: AMES SALMONELLA TYPHIMURIUM, Strain/Indicator: TA102, Metabolic Activation: RAT LIVER S-9, Method: PREINCUBATION
  mutagenic call: inactive; negative
